Converted amounts (≈) assume the structure as drawn.
Assays:
Type in all cases: cell-based
[1] = test system: Pseudomonas aeruginosa 9027; experiment: MIC against standard strains (agar dilution); settings: standard strain Pseudomonas aeruginosa 9027, 37° C., 18 to 20 hours, read-out: Minimum Inhibitory Concentration (MIC)
[2] = test system: Methicillin-sensitive Staphylococcus aureus; experiment: MIC against clinically isolated aerobic Gram-positive strains; settings: 33 strains
[3] = test system: Streptococcus pyogenes 308A; experiment: MIC against standard strains (agar dilution); settings: standard strain Streptococcus pyogenes 308A, 37° C., 18 to 20 hours, read-out: Minimum Inhibitory Concentration (MIC)
[4] = test system: Providentia sp.; experiment: MIC against clinically isolated aerobic Gram-negative strains; settings: 13 strains
[5] = test system: Klebsiella pneumoniae; experiment: as above; settings: 30 strains
[6] = test system: Enterobacter cloacae 1321E; experiment: MIC against standard strains (agar dilution); settings: standard strain Enterobacter cloacae 1321E, 37° C., 18 to 20 hours, read-out: Minimum Inhibitory Concentration (MIC)
[7] = test system: Pseudomonas aeruginosa; experiment: MIC against clinically isolated aerobic Gram-negative strains; settings: 60 strains
[8] = test system: Morganella morganii; experiment: as above; settings: 15 strains
[9] = test system: Enterobacter aerogenes; experiment: as above; settings: 14 strains; for MIC50 / MIC90: Klebsiella aerogenes
[10] = test system: Staphylococcus aureus 503; experiment: MIC against standard strains (agar dilution); settings: standard strain Staphylococcus aureus 503, 37° C., 18 to 20 hours, read-out: Minimum Inhibitory Concentration (MIC)
[11] = test system: Haemophilus influenzae; experiment: MIC against clinically isolated aerobic Gram-negative strains; settings: 24 strains
[12] = test system: Klebsiella cxytoca 1082E; experiment: MIC against standard strains (agar dilution); settings: standard strain Klebsiella cxytoca 1082E, 37° C., 18 to 20 hours, read-out: Minimum Inhibitory Concentration (MIC)
[13] = test system: Bacteroides fragilis; experiment: MIC against clinically isolated anaerobic Gram-negative strains; settings: 34 strains
[14] = test system: Enterobacter cloacae P99; experiment: MIC against standard strains (agar dilution); settings: standard strain Enterobacter cloacae P99, 37° C., 18 to 20 hours, read-out: Minimum Inhibitory Concentration (MIC)
[15] = test system: Bacteroides spp.; experiment: MIC against clinically isolated anaerobic Gram-negative strains; settings: 11 strains
[16] = test system: Clostridium perfringens; experiment: microbe, parasite or virus in culture; settings: for MIC50 / MIC90: Clostridium perfringens; for MIC Range: clinically isolated anaerobic Clostridium perfringens, 13 strains
[17] = test system: Citrobacter freundii; experiment: MIC against clinically isolated aerobic Gram-negative strains; settings: 14 strains
[18] = test system: Escherichia coli 1507E; experiment: MIC against standard strains (agar dilution); settings: standard strain Escherichia coli 1507E, 37° C., 18 to 20 hours, read-out: Minimum Inhibitory Concentration (MIC)
[19] = test system: Streptococcus agalactiae; experiment: MIC against clinically isolated aerobic Gram-positive strains; settings: 15 strains
[20] = test system: Pseudomonas aeruginosa 1771M; experiment: MIC against standard strains (agar dilution); settings: read-out: Minimum Inhibitory Concentration (MIC)
[21] = test system: Escherichia coli; experiment: MIC against clinically isolated aerobic Gram-negative strains; settings: 30 strains
[22] = test system: Staphylococcus aureus 285; experiment: MIC against standard strains (agar dilution); settings: standard strain Staphylococcus aureus 285, 37° C., 18 to 20 hours, read-out: Minimum Inhibitory Concentration (MIC)
[23] = test system: Escherichia coli 078; experiment: MIC against standard strains (agar dilution); settings: standard strain Escherichia coli 078, 37° C., 18 to 20 hours, read-out: Minimum Inhibitory Concentration (MIC)
[24] = test system: Pseudomonas aeruginosa 1771; experiment: MIC against standard strains (agar dilution); settings: standard strain Pseudomonas aeruginosa 1771, 37° C., 18 to 20 hours, read-out: Minimum Inhibitory Concentration (MIC)
[25] = test system: Streptococcus pyogenes 77A; experiment: MIC against standard strains (agar dilution); settings: standard strain Streptococcus pyogenes 77A, 37° C., 18 to 20 hours, read-out: Minimum Inhibitory Concentration (MIC)
[26] = test system: Salmonella typhimurium; experiment: MIC against standard strains (agar dilution); settings: Salmonella enterica, standard strain Salmonella typhimurium, 37° C., 18 to 20 hours, read-out: Minimum Inhibitory Concentration (MIC)
[27] = test system: Clostridium difficile; experiment: MIC against clinically isolated anaerobic Gram-positive strains; settings: 15 strains; for MIC50 / MIC90: Clostridioides difficile
Procedure: The in vitro antibacterial activities of the sodium 3-carboxylate compound of the present invention prepared in the above Example were measured against standard strains (Table 1), clinically isolated aerobic Gram-positive strains (Table 2), clinically isolated aerobic Gram-negative strains (Table 3), clinically isolated anaerobic Gram-positive strains (Table 4) and clinically isolated anaerobic Gram-negative strains (Table 5) using Gram-positive bacteria such as Streptococcus and Staphylococcus, Gram-negative bacteria such as Escherichia, Salmonella, Krebsiella and Enterobacter. Imipenem (IPM), meropenem (MPM) and ertapenem (EPM) were used as control groups.
The results are shown in Tables 1 to 5, and MIC50 and MIC90 represent the concentrations at which the test strain's growth was inhibited to the extents of 50% and 90%, respectively.

[28] = test system: Moraxella catarrhalis; experiment: MIC against clinically isolated aerobic Gram-negative strains; settings: 24 strains

Work on `C[C@@H](O)[C@H]1C(=O)N2C(C(=O)O)=C(SCCN=CN)C[C@H]12` [IPM, Imipenem] yielded an MIC [1] of 0.391 µg/mL (≈ 1.31 µM), an MIC50 [2] of 0.015 µg/mL (≈ 0.0501 µM) and an MIC90 [2] of 0.03 µg/mL (≈ 0.1 µM). For the same molecule, the “MIC Range” value [2] was 0.015 to 0.06 µg/mL, the MIC [3] was 0.004 µg/mL (≈ 0.0134 µM) and the MIC50 [4] was 2 µg/mL (≈ 6.68 µM). The MIC90 [4] was 2 µg/mL (≈ 6.68 µM), the “MIC Range” value [4] was 0.25 to 4 µg/mL and the MIC50 [5] was 0.12 µg/mL (≈ 0.401 µM). The MIC90 [5] was 0.5 µg/mL (≈ 1.67 µM), the “MIC Range” value [5] was 0.06 to 1 µg/mL and the MIC [6] was 0.098 µg/mL (≈ 0.327 µM). The MIC50 [7] was 2 µg/mL (≈ 6.68 µM), the MIC90 [7] was 16 µg/mL (≈ 53.4 µM) and the “MIC Range” value [7] was 0.5 to 128 µg/mL. For the same molecule, the MIC50 [8] was 1 µg/mL (≈ 3.34 µM), the MIC90 [8] was 2 µg/mL (≈ 6.68 µM) and the “MIC Range” value [8] was 0.5 to 2 µg/mL. For the same molecule, the “MIC Range” value [9] was 0.12 to 0.5 µg/mL, the MIC50 [9] was 0.12 µg/mL (≈ 0.401 µM) and the MIC90 [9] was 0.5 µg/mL (≈ 1.67 µM). For the same molecule, the MIC [10] was 0.007 µg/mL (≈ 0.0234 µM), the MIC50 [11] was 1 µg/mL (≈ 3.34 µM) and the MIC90 [11] was 4 µg/mL (≈ 13.4 µM). The “MIC Range” value [11] was 0.25 to 8 µg/mL, the MIC [12] was 0.195 µg/mL (≈ 0.651 µM) and the MIC50 [13] was 0.25 µg/mL (≈ 0.835 µM). The MIC90 [13] was 0.5 µg/mL (≈ 1.67 µM), the “MIC Range” value [13] was 0.06 to 2 µg/mL and the MIC [14] was 0.098 µg/mL (≈ 0.327 µM). For the same molecule, the MIC50 [15] was 0.5 µg/mL (≈ 1.67 µM), the MIC90 [15] was 1 µg/mL (≈ 3.34 µM) and the “MIC Range” value [15] was 0.25 to 2 µg/mL. For the same molecule, the MIC50 [16] was 0.06 µg/mL (≈ 0.2 µM), the MIC90 [16] was 0.12 µg/mL (≈ 0.401 µM) and the “MIC Range” value [16] was 0.06 to 0.12 µg/mL. For the same molecule, the MIC50 [17] was 0.12 µg/mL (≈ 0.401 µM), the MIC90 [17] was 0.5 µg/mL (≈ 1.67 µM) and the “MIC Range” value [17] was 0.06 to 0.5 µg/mL. It also gave an MIC [18] of 0.098 µg/mL (≈ 0.327 µM), an MIC50 [19] of 0.008 µg/mL (≈ 0.0267 µM) and an MIC90 [19] of 0.015 µg/mL (≈ 0.0501 µM). For the same molecule, the “MIC Range” value [19] was 0.008 to 0.015 µg/mL, the MIC [20] was 0.195 µg/mL (≈ 0.651 µM) and the MIC50 [21] was 0.12 µg/mL (≈ 0.401 µM). For the same molecule, the MIC90 [21] was 0.5 µg/mL (≈ 1.67 µM), the “MIC Range” value [21] was 0.06 to 1 µg/mL and the MIC [22] was 0.013 µg/mL (≈ 0.0434 µM). The MIC [23] was 0.098 µg/mL (≈ 0.327 µM), the MIC [24] was 0.781 µg/mL (≈ 2.61 µM) and the MIC [25] was < 0.002 µg/mL. For the same molecule, the MIC [26] was 0.781 µg/mL (≈ 2.61 µM), the “MIC Range” value [27] was 4 to 16 µg/mL and the MIC50 [27] was 8 µg/mL (≈ 26.7 µM). It also gave an MIC90 [27] of 8 µg/mL (≈ 26.7 µM), an MIC50 [28] of 0.06 µg/mL (≈ 0.2 µM) and an MIC90 [28] of 0.06 µg/mL (≈ 0.2 µM). For the same molecule, the “MIC Range” value [28] was 0.008 to 0.25 µg/mL.
Work on `C[C@@H](O)[C@H]1C(=O)N2C(C(=O)O)=C(S[C@@H]3CN[C@H](C(=O)N(C)C)C3)[C@H](C)[C@H]12` [MPM, meropenem] yielded an MIC [1] of 0.195 µg/mL (≈ 0.509 µM), an MIC50 [2] of 0.12 µg/mL (≈ 0.313 µM) and an MIC90 [2] of 0.12 µg/mL (≈ 0.313 µM). The “MIC Range” value [2] was 0.06 to 0.25 µg/mL, the MIC [3] was 0.007 µg/mL (≈ 0.0183 µM) and the MIC50 [4] was 0.06 µg/mL (≈ 0.156 µM). For the same molecule, the MIC90 [4] was 2 µg/mL (≈ 5.22 µM), the “MIC Range” value [4] was 0.015 to 2 µg/mL and the MIC50 [5] was 0.03 µg/mL (≈ 0.0782 µM). The MIC90 [5] was 0.06 µg/mL (≈ 0.156 µM), the “MIC Range” value [5] was 0.015 to 0.06 µg/mL and the MIC [6] was 0.025 µg/mL (≈ 0.0652 µM). The MIC50 [7] was 2 µg/mL (≈ 5.22 µM), the MIC90 [7] was 16 µg/mL (≈ 41.7 µM) and the MIC50 [8] was 0.06 µg/mL (≈ 0.156 µM). The MIC90 [8] was 0.12 µg/mL (≈ 0.313 µM), the “MIC Range” value [8] was 0.03 to 0.12 µg/mL and the “MIC Range” value [9] was 0.015 to 0.06 µg/mL. The MIC50 [9] was 0.03 µg/mL (≈ 0.0782 µM), the MIC90 [9] was 0.06 µg/mL (≈ 0.156 µM) and the MIC [10] was 0.098 µg/mL (≈ 0.256 µM). The MIC50 [11] was 0.25 µg/mL (≈ 0.652 µM), the MIC90 [11] was 1 µg/mL (≈ 2.61 µM) and the “MIC Range” value [11] was 0.06 to 1 µg/mL. The MIC [12] was 0.049 µg/mL (≈ 0.128 µM), the MIC50 [13] was 0.12 µg/mL (≈ 0.313 µM) and the MIC90 [13] was 0.25 µg/mL (≈ 0.652 µM). For the same molecule, the “MIC Range” value [13] was 0.12 to 4 µg/mL, the MIC [14] was 0.049 µg/mL (≈ 0.128 µM) and the MIC50 [15] was 0.5 µg/mL (≈ 1.3 µM). The MIC90 [15] was 0.5 µg/mL (≈ 1.3 µM), the “MIC Range” value [15] was 0.12 to 0.5 µg/mL and the MIC50 [16] was < 0.06 µg/mL. The MIC90 [16] was < 0.06 µg/mL, the “MIC Range” value [16] was <0.06 µg/mL and the MIC50 [17] was 0.015 µg/mL (≈ 0.0391 µM). For the same molecule, the MIC90 [17] was 0.03 µg/mL (≈ 0.0782 µM), the “MIC Range” value [17] was 0.015 to 0.06 µg/mL and the MIC [18] was 0.025 µg/mL (≈ 0.0652 µM). For the same molecule, the MIC50 [19] was 0.03 µg/mL (≈ 0.0782 µM), the MIC90 [19] was 0.03 µg/mL (≈ 0.0782 µM) and the “MIC Range” value [19] was 0.03 µg/mL (≈ 0.0782 µM). For the same molecule, the MIC [20] was 0.098 µg/mL (≈ 0.256 µM), the MIC50 [21] was 0.015 µg/mL (≈ 0.0391 µM) and the MIC90 [21] was 0.03 µg/mL (≈ 0.0782 µM). For the same molecule, the “MIC Range” value [21] was 0.008 to 0.5 µg/mL, the MIC [22] was 0.195 µg/mL (≈ 0.509 µM) and the MIC [23] was 0.025 µg/mL (≈ 0.0652 µM). The MIC [24] was 0.391 µg/mL (≈ 1.02 µM), the MIC [25] was 0.007 µg/mL (≈ 0.0183 µM) and the MIC [26] was 0.049 µg/mL (≈ 0.128 µM). For the same molecule, the “MIC Range” value [27] was 1 to 2 µg/mL, the MIC50 [27] was 1 µg/mL (≈ 2.61 µM) and the MIC90 [27] was 2 µg/mL (≈ 5.22 µM). For the same molecule, the MIC50 [28] was 0.008 µg/mL (≈ 0.0209 µM), the MIC90 [28] was 0.008 µg/mL (≈ 0.0209 µM) and the “MIC Range” value [28] was 0.008 to 0.03 µg/mL.

Reference: US20080039438A1, “1B-Methylcarbapenem Derivative and Process for the Preparation Thereof” (Korea Institute of Science and Technology, priority 2004, published 2008)
